According to ChEMBL document CHEMBL1150039, “Dual inhibition of neutral endopeptidase and angiotensin-converting enzyme by N-phosphonomethyl and N-carboxyalkyl dipeptides” (Bioorg Med Chem Lett, 1994):

How the values were obtained:
Neprilysin = Neprilysin (Homo sapiens, UniProt P08473); assay: In vitro inhibitory concentration against neutral endopeptidase
[1] = molecular target: Angiotensin-converting enzyme (Homo sapiens, UniProt P12821); assay: In vitro inhibitory concentration against angiotensin-converting enzyme; assay type: protein assay
Chain of Angiotensin-converting enzyme (P12821 whole entry): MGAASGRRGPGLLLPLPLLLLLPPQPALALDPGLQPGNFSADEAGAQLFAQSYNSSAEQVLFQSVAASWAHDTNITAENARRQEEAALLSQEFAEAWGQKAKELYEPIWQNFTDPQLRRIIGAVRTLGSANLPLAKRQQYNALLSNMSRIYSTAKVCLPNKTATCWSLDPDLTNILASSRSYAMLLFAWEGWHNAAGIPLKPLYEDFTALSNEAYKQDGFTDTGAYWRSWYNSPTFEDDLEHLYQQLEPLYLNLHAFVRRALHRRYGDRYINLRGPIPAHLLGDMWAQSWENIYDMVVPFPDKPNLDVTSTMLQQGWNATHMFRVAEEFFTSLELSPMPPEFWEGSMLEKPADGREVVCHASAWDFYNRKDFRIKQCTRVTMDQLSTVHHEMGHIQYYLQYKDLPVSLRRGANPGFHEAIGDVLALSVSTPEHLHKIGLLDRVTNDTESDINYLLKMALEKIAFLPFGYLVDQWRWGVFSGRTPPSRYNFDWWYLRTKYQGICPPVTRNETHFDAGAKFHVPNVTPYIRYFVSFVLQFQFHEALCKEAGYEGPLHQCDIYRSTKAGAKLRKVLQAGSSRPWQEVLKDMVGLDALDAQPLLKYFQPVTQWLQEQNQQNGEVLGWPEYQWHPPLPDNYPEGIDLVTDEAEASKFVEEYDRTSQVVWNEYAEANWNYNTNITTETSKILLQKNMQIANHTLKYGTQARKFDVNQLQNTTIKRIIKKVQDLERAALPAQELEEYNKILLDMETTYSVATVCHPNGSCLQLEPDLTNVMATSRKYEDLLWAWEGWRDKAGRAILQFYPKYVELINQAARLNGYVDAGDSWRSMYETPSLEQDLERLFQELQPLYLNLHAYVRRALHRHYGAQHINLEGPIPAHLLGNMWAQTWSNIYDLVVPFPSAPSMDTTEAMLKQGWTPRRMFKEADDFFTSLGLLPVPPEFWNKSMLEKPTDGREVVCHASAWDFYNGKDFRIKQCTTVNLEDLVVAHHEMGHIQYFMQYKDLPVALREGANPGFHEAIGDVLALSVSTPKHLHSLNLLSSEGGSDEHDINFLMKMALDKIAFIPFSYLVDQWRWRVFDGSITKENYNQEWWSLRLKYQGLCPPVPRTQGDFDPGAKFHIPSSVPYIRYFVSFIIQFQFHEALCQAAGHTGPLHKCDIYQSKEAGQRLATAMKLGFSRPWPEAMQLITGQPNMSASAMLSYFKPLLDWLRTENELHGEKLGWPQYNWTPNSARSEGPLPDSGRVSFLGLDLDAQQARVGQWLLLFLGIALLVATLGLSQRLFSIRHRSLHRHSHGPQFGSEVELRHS

Chain of Neprilysin (P08473 whole entry): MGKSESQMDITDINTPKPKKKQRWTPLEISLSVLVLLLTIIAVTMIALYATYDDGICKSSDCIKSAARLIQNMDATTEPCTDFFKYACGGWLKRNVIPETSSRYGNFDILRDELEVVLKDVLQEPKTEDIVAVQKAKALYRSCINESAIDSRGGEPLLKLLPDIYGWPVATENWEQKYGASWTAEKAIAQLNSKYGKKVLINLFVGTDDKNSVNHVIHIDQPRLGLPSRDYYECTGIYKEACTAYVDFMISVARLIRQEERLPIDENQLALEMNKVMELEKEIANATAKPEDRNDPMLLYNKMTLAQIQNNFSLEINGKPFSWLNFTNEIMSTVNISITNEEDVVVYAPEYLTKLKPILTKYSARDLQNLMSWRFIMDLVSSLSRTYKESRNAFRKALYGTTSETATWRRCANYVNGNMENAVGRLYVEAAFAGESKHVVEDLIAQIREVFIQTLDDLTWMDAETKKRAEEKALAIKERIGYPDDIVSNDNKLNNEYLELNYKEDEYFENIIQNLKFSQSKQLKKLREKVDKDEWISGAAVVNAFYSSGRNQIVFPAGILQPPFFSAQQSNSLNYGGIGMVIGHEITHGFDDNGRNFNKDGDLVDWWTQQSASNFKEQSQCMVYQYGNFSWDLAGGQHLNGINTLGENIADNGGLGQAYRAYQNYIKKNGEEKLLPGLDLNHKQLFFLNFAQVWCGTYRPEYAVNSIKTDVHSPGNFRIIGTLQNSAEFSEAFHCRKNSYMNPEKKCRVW

Row | Compound | IC50 (Neprilysin) | IC50 [1]
1 | CC(C)Oc1ccc(C[C@H](NC(=O)[C@@H](NCP(=O)(O)O)C(C)C)C(=O)O)cc1 | 9 nM | 92 nM
2 | O=C(O)[C@H](Cc1ccc(-c2ccccc2)cc1)NC(=O)[C@H](Cc1ccc2c(c1)OCO2)NCP(=O)(O)O | 48 nM | 147 nM
3 | CC(C)[C@H](NCP(=O)(O)O)C(=O)N[C@@H](Cc1ccc(-c2ccccc2)cc1)C(=O)N1C[C@H](O)C[C@H]1C(=O)O | 12 nM | > 1000 nM
4 | C[C@H](c1ccccc1)[C@H](NCP(=O)(O)O)C(=O)N[C@@H](Cc1ccc(-c2ccccc2)cc1)C(=O)O | 47 nM | 138 nM
5 | O=C(O)[C@H](Cc1ccc(-c2ccccc2)cc1)NC(=O)C1(NCP(=O)(O)O)CCCC1 | > 1000 nM | > 1000 nM
6 | CC(C)[C@H](NCP(=O)(O)O)C(=O)N[C@@H](Cc1ccc(-c2ccccc2)cc1)C(=O)N[C@@H](Cc1ccc(O)cc1)C(=O)O | 4 nM | > 1000 nM
7 | C[C@H](OCc1ccccc1)[C@H](NCP(=O)(O)O)C(=O)N[C@@H](Cc1ccc(-c2ccccc2)cc1)C(=O)O | > 1000 nM | 656 nM
8 | O=C(O)[C@H](Cc1ccc(-c2ccccc2)cc1)NC(=O)[C@H](Cc1ccc(-c2ccccc2)cc1)NCP(=O)(O)O | 20 nM | 414 nM
9 | C[C@H](N[C@@H](Cc1ccccc1)C(=O)N[C@@H](Cc1ccc(-c2ccccc2)cc1)C(=O)O)P(=O)(O)O | 171 nM | 44 nM
10 | O=C(O)[C@H](Cc1ccc(-c2ccccc2)cc1)NC(=O)[C@H](Cc1ccc2ccccc2c1)NCP(=O)(O)O | 282 nM | 53 nM
11 | CC(C)[C@H](N[C@@H](C)C(=O)O)C(=O)N[C@@H](Cc1ccc(-c2ccccc2)cc1)C(=O)O | 735 nM | 23 nM
12 | O=C(O)[C@H](Cc1ccc(-c2ccccc2)cc1)NC(=O)[C@@H](NCP(=O)(O)O)C1CCCCC1 | 34 nM | > 1000 nM
13 | CC(C)[C@H](NCP(=O)(O)O)C(=O)N[C@@H](Cc1c[nH]c2ccccc12)C(=O)O | 9 nM | 240 nM
14 | CC(C)[C@H](NCP(=O)(O)O)C(=O)N[C@@H](Cc1ccc(C2CCCCC2)cc1)C(=O)O | 35 nM | 122 nM
15 | CC(C)[C@H](NCP(=O)(O)O)C(=O)N[C@@H](CCc1ccccc1)C(=O)O | 26 nM | 100 nM
16 | CC[C@H](C)C(N[C@@H](C)C(=O)O)C(=O)N[C@@H](Cc1ccc(-c2ccccc2)cc1)C(=O)O (some centres undefined) | 165 nM | 22 nM

Next, values leading:

Row | IC50 (Neprilysin) | IC50 [1] | Compound
17 | 37 nM | 731 nM | CCCC[C@H](NCP(=O)(O)O)C(=O)N[C@@H](Cc1ccc(-c2ccccc2)cc1)C(=O)O
18 | > 1000 nM | > 1000 nM | O=C(O)[C@H](Cc1ccc(-c2ccccc2)cc1)NC(=O)[C@H](Cc1cnc[nH]1)NCP(=O)(O)O
19 | > 1000 nM | 665 nM | C[C@H](O)[C@H](NCP(=O)(O)O)C(=O)N[C@@H](Cc1ccc(-c2ccccc2)cc1)C(=O)O
20 | 200 nM | 65 nM | CC[C@H](C)C(NCC(=O)O)C(=O)N[C@@H](Cc1ccc(-c2ccccc2)cc1)C(=O)O (some centres undefined)
21 | > 1000 nM | > 1000 nM | O=C(O)[C@H](Cc1ccc(-c2ccccc2)cc1)NC(=O)[C@H](Cc1ccccc1O)NCP(=O)(O)O
22 | 338 nM | 473 nM | O=C(O)[C@H](Cc1ccc(-c2ccccc2)cc1)NC(=O)[C@H](Cc1ccc(Cl)cc1)NCP(=O)(O)O
23 | 73 nM | 385 nM | O=C(O)[C@H](Cc1ccc(-c2ccccc2)cc1)NC(=O)[C@H](Cc1cccs1)NCP(=O)(O)O
24 | 226 nM | > 1000 nM | O=C(O)[C@H](Cc1ccc(-c2ccccc2)cc1)NC(=O)[C@H](Cc1ccc(O)cc1)NCP(=O)(O)O
25 | 3 nM | 25 nM | CC(C)[C@H](NCP(=O)(O)O)C(=O)N[C@@H](Cc1ccc(-c2ccccc2)cc1)C(=O)O
26 | 2 nM | 50 nM | CC[C@@H](C)[C@H](NCP(=O)(O)O)C(=O)N[C@@H](Cc1ccc(-c2ccccc2)cc1)C(=O)O
27 | 1000 nM | 660 nM | C[C@H](NCP(=O)(O)O)C(=O)N[C@@H](Cc1ccc(-c2ccccc2)cc1)C(=O)O
28 | 96 nM | 498 nM | Cc1ccccc1C[C@H](NCP(=O)(O)O)C(=O)N[C@@H](Cc1ccc(-c2ccccc2)cc1)C(=O)O
29 | 356 nM | > 1000 nM | CC(C)C[C@H](NCP(=O)(O)O)C(=O)N[C@@H](Cc1ccc(-c2ccccc2)cc1)C(=O)O
30 | 35 nM | 117 nM | O=C(O)[C@H](Cc1ccc(-c2ccccc2)cc1)NC(=O)[C@H](Cc1ccccc1)NCP(=O)(O)O
31 | > 1000 nM | > 1000 nM | CC(C)(C)[C@H](NCP(=O)(O)O)C(=O)N[C@@H](Cc1ccc(-c2ccccc2)cc1)C(=O)O
32 | > 1000 nM | 160 nM | COc1ccccc1C[C@H](NCP(=O)(O)O)C(=O)N[C@@H](Cc1ccc(-c2ccccc2)cc1)C(=O)O
